Reference: PubChem BioAssay (NCI)
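96-well plates; 48 h exposure; 5 concentrations. Endpoints by linear interpolation between flanking doses. Not reached: highest tested concentration assigned. Abbreviation: GI50, concentration required for 50% inhibition of growth. The concentration for full growth arrest is given as TGI.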

Experiments:
Test in all cases: inhibition of tumour cell growth, NCI panel, 48 h
A498 renal = system: A498 renal
COLO 205 colon = system: COLO 205 colon
RPMI-8226 leukemia = system: RPMI-8226 leukemia
SN12C renal = system: SN12C renal
MDA-MB-231 breast = system: MDA-MB-231 breast
NCI-H460 lung = system: NCI-H460 lung
HCT-116 colon = system: HCT-116 colon
DU-145 prostate = system: DU-145 prostate
CCRF-CEM leukemia = system: CCRF-CEM leukemia
NCI-H522 lung = system: NCI-H522 lung
MDA-MB-435 = system: MDA-MB-435
OVCAR-3 ovarian = system: OVCAR-3 ovarian
MCF7 breast = system: MCF7 breast
PC-3 prostate = system: PC-3 prostate
T-47D breast = system: T-47D breast
SF-295 CNS = system: SF-295 CNS
NCI/ADR-RES ovarian = system: NCI/ADR-RES ovarian
786-0 renal = system: 786-0 renal
SK-MEL-5 melanoma = system: SK-MEL-5 melanoma
BT-549 breast = system: BT-549 breast
CAKI-1 renal = system: CAKI-1 renal
HCT-15 colon = system: HCT-15 colon
U251 CNS = system: U251 CNS
SK-MEL-28 melanoma = system: SK-MEL-28 melanoma
A549 NSCLC = system: A549 NSCLC
MALME-3M melanoma = system: MALME-3M melanoma
UACC-257 melanoma = system: UACC-257 melanoma
SR leukemia = system: SR leukemia
HOP-92 NSCLC = system: HOP-92 NSCLC
HCC-2998 colon = system: HCC-2998 colon
OVCAR-5 ovarian = system: OVCAR-5 ovarian
M14 melanoma = system: M14 melanoma
UO-31 renal = system: UO-31 renal
NCI-H23 lung = system: NCI-H23 lung
HT29 colon = system: HT29 colon
KM12 colon = system: KM12 colon
SNB-75 CNS = system: SNB-75 CNS
SF-539 CNS = system: SF-539 CNS
LOX IMVI melanoma = system: LOX IMVI melanoma
SF-268 CNS = system: SF-268 CNS
HOP-62 NSCLC = system: HOP-62 NSCLC
EKVX NSCLC = system: EKVX NSCLC
UACC-62 melanoma = system: UACC-62 melanoma
IGROV1 ovarian = system: IGROV1 ovarian
RXF 393 renal = system: RXF 393 renal
SW-620 colon = system: SW-620 colon
SK-OV-3 ovarian = system: SK-OV-3 ovarian
ACHN renal = system: ACHN renal
OVCAR-4 ovarian = system: OVCAR-4 ovarian
SK-MEL-2 melanoma = system: SK-MEL-2 melanoma
SNB-19 CNS = system: SNB-19 CNS
NCI-H226 lung = system: NCI-H226 lung
HS 578T breast = system: HS 578T breast
HL-60(TB) leukemia = system: HL-60(TB) leukemia
OVCAR-8 ovarian = system: OVCAR-8 ovarian
TK-10 renal = system: TK-10 renal

NCCCNc1nc2ccccc2c2c(=O)c3cc(F)ccc3sc12
GI50 (A498 renal): 1.48 µM
TGI (A498 renal): 3.36 µM
GI50 (COLO 205 colon): 1.69 µM
TGI (COLO 205 colon): 3.48 µM
GI50 (RPMI-8226 leukemia): 1.77 µM
TGI (RPMI-8226 leukemia): 3.65 µM
GI50 (SN12C renal): 1.48 µM
TGI (SN12C renal): 2.93 µM
GI50 (MDA-MB-231 breast): 1.45 µM
TGI (MDA-MB-231 breast): 2.9 µM
GI50 (NCI-H460 lung): 1.65 µM
TGI (NCI-H460 lung): 3.22 µM
GI50 (HCT-116 colon): 1.43 µM
TGI (HCT-116 colon): 2.77 µM
GI50 (DU-145 prostate): 1.73 µM
TGI (DU-145 prostate): 3.21 µM
GI50 (CCRF-CEM leukemia): 1.81 µM
TGI (CCRF-CEM leukemia): 3.72 µM
GI50 (NCI-H522 lung): 1.64 µM
TGI (NCI-H522 lung): 3.45 µM
GI50 (MDA-MB-435): 1.75 µM
TGI (MDA-MB-435): 3.27 µM
GI50 (OVCAR-3 ovarian): 1.7 µM
TGI (OVCAR-3 ovarian): 3.25 µM
GI50 (MCF7 breast): 1.4 µM
TGI (MCF7 breast): 2.88 µM
GI50 (PC-3 prostate): 1.45 µM
TGI (PC-3 prostate): 2.98 µM
GI50 (T-47D breast): 1.63 µM
TGI (T-47D breast): 3.58 µM
GI50 (SF-295 CNS): 1.76 µM
TGI (SF-295 CNS): 3.21 µM
GI50 (NCI/ADR-RES ovarian): 1.7 µM
TGI (NCI/ADR-RES ovarian): 3.36 µM
GI50 (786-0 renal): 1.54 µM
TGI (786-0 renal): 3.01 µM
GI50 (SK-MEL-5 melanoma): 1.73 µM
TGI (SK-MEL-5 melanoma): 3.13 µM
GI50 (BT-549 breast): 1.51 µM
TGI (BT-549 breast): 2.96 µM
GI50 (CAKI-1 renal): 1.41 µM
TGI (CAKI-1 renal): 2.75 µM
GI50 (HCT-15 colon): 1.43 µM
TGI (HCT-15 colon): 2.84 µM
GI50 (U251 CNS): 1.64 µM
TGI (U251 CNS): 3.25 µM
GI50 (SK-MEL-28 melanoma): 1.79 µM
TGI (SK-MEL-28 melanoma): 3.24 µM
GI50 (A549 NSCLC): 1.59 µM
TGI (A549 NSCLC): 3.48 µM
GI50 (MALME-3M melanoma): 1.71 µM
TGI (MALME-3M melanoma): 3.22 µM
GI50 (UACC-257 melanoma): 1.79 µM
TGI (UACC-257 melanoma): 3.81 µM
GI50 (SR leukemia): 1.48 µM
TGI (SR leukemia): 4.09 µM
GI50 (HOP-92 NSCLC): 1.31 µM
TGI (HOP-92 NSCLC): 3.33 µM
GI50 (HCC-2998 colon): 1.64 µM
TGI (HCC-2998 colon): 3.14 µM
GI50 (OVCAR-5 ovarian): 1.61 µM
TGI (OVCAR-5 ovarian): 3.05 µM
GI50 (M14 melanoma): 1.69 µM
TGI (M14 melanoma): 3.11 µM
GI50 (UO-31 renal): 1.27 µM
TGI (UO-31 renal): 2.57 µM
GI50 (NCI-H23 lung): 1.64 µM
TGI (NCI-H23 lung): 3.19 µM
GI50 (HT29 colon): 1.54 µM
TGI (HT29 colon): 3.14 µM
GI50 (KM12 colon): 1.8 µM
TGI (KM12 colon): 3.36 µM
GI50 (SNB-75 CNS): 1.31 µM
TGI (SNB-75 CNS): 2.64 µM
GI50 (SF-539 CNS): 1.71 µM
TGI (SF-539 CNS): 3.1 µM
GI50 (LOX IMVI melanoma): 1.43 µM
TGI (LOX IMVI melanoma): 2.83 µM
GI50 (SF-268 CNS): 1.45 µM
TGI (SF-268 CNS): 3.12 µM
GI50 (HOP-62 NSCLC): 1.43 µM
TGI (HOP-62 NSCLC): 3.15 µM
GI50 (EKVX NSCLC): 1.57 µM
TGI (EKVX NSCLC): 3.01 µM
GI50 (UACC-62 melanoma): 1.62 µM
TGI (UACC-62 melanoma): 3.01 µM
GI50 (IGROV1 ovarian): 1.42 µM
TGI (IGROV1 ovarian): 2.9 µM
GI50 (RXF 393 renal): 1.42 µM
TGI (RXF 393 renal): 2.74 µM
GI50 (SW-620 colon): 1.64 µM
TGI (SW-620 colon): 3.27 µM
GI50 (SK-OV-3 ovarian): 1.56 µM
TGI (SK-OV-3 ovarian): 3.31 µM
GI50 (ACHN renal): 1.58 µM
TGI (ACHN renal): 2.93 µM
GI50 (OVCAR-4 ovarian): 1.75 µM
TGI (OVCAR-4 ovarian): 3.4 µM
GI50 (SK-MEL-2 melanoma): 1.75 µM
TGI (SK-MEL-2 melanoma): 3.43 µM

O=S(=O)(NC1=NCCN1C(=S)SN1CCn2c1nsc2=S)c1ccc(Oc2ccccc2)cc1
GI50 (A498 renal): 34.2 µM
TGI (A498 renal): 97 µM
GI50 (COLO 205 colon): > 100 µM
TGI (COLO 205 colon): > 100 µM
GI50 (RPMI-8226 leukemia): 30.2 µM
TGI (RPMI-8226 leukemia): > 100 µM
GI50 (SNB-19 CNS): > 100 µM
TGI (SNB-19 CNS): > 100 µM
GI50 (SN12C renal): 59.8 µM
TGI (SN12C renal): > 100 µM
GI50 (MDA-MB-231 breast): 37.8 µM
TGI (MDA-MB-231 breast): > 100 µM
GI50 (NCI-H460 lung): 51.2 µM
TGI (NCI-H460 lung): > 100 µM
GI50 (HCT-116 colon): 51.2 µM
TGI (HCT-116 colon): > 100 µM
GI50 (DU-145 prostate): 31.7 µM
TGI (DU-145 prostate): > 100 µM
GI50 (NCI-H226 lung): > 100 µM
TGI (NCI-H226 lung): > 100 µM
GI50 (NCI-H522 lung): 26.2 µM
TGI (NCI-H522 lung): 69 µM
GI50 (MDA-MB-435): 30.4 µM
TGI (MDA-MB-435): > 100 µM
GI50 (OVCAR-3 ovarian): > 100 µM
TGI (OVCAR-3 ovarian): > 100 µM
GI50 (MCF7 breast): 25.7 µM
TGI (MCF7 breast): > 100 µM
GI50 (PC-3 prostate): 56 µM
TGI (PC-3 prostate): > 100 µM
GI50 (T-47D breast): 81.3 µM
TGI (T-47D breast): > 100 µM
GI50 (HS 578T breast): 27.5 µM
TGI (HS 578T breast): > 100 µM
GI50 (SF-295 CNS): > 100 µM
TGI (SF-295 CNS): > 100 µM
GI50 (NCI/ADR-RES ovarian): 77.4 µM
TGI (NCI/ADR-RES ovarian): > 100 µM
GI50 (786-0 renal): 63.8 µM
TGI (786-0 renal): > 100 µM
GI50 (SK-MEL-5 melanoma): 32.3 µM
TGI (SK-MEL-5 melanoma): > 100 µM
GI50 (CAKI-1 renal): > 100 µM
TGI (CAKI-1 renal): > 100 µM
GI50 (HCT-15 colon): 72.1 µM
TGI (HCT-15 colon): > 100 µM
GI50 (U251 CNS): > 100 µM
TGI (U251 CNS): > 100 µM
GI50 (SK-MEL-28 melanoma): > 100 µM
TGI (SK-MEL-28 melanoma): > 100 µM
GI50 (A549 NSCLC): > 100 µM
TGI (A549 NSCLC): > 100 µM
GI50 (MALME-3M melanoma): 26.2 µM
TGI (MALME-3M melanoma): > 100 µM
GI50 (UACC-257 melanoma): > 100 µM
TGI (UACC-257 melanoma): > 100 µM
GI50 (HL-60(TB) leukemia): 2.78 µM
TGI (HL-60(TB) leukemia): 11.3 µM
GI50 (SR leukemia): 3.7 µM
TGI (SR leukemia): 45.8 µM
GI50 (HOP-92 NSCLC): 74.2 µM
TGI (HOP-92 NSCLC): > 100 µM
GI50 (HCC-2998 colon): 41.7 µM
TGI (HCC-2998 colon): > 100 µM
GI50 (OVCAR-5 ovarian): > 100 µM
TGI (OVCAR-5 ovarian): > 100 µM
GI50 (OVCAR-8 ovarian): > 100 µM
TGI (OVCAR-8 ovarian): > 100 µM
GI50 (M14 melanoma): > 100 µM
TGI (M14 melanoma): > 100 µM
GI50 (UO-31 renal): > 100 µM
TGI (UO-31 renal): > 100 µM
GI50 (NCI-H23 lung): 43 µM
TGI (NCI-H23 lung): > 100 µM
GI50 (HT29 colon): 54.7 µM
TGI (HT29 colon): > 100 µM
GI50 (KM12 colon): 39.7 µM
TGI (KM12 colon): > 100 µM
GI50 (SNB-75 CNS): 39.5 µM
TGI (SNB-75 CNS): > 100 µM
GI50 (SF-539 CNS): 49.5 µM
TGI (SF-539 CNS): > 100 µM
GI50 (LOX IMVI melanoma): 51 µM
TGI (LOX IMVI melanoma): > 100 µM
GI50 (SF-268 CNS): 57.3 µM
TGI (SF-268 CNS): > 100 µM
GI50 (HOP-62 NSCLC): > 100 µM
TGI (HOP-62 NSCLC): > 100 µM
GI50 (EKVX NSCLC): > 100 µM
TGI (EKVX NSCLC): > 100 µM
GI50 (UACC-62 melanoma): 39.3 µM
TGI (UACC-62 melanoma): > 100 µM
GI50 (IGROV1 ovarian): 31.8 µM
TGI (IGROV1 ovarian): > 100 µM
GI50 (TK-10 renal): 64.4 µM
TGI (TK-10 renal): > 100 µM
GI50 (RXF 393 renal): 32.4 µM
TGI (RXF 393 renal): 86.1 µM
GI50 (SW-620 colon): 67 µM
TGI (SW-620 colon): > 100 µM
GI50 (SK-OV-3 ovarian): > 100 µM
TGI (SK-OV-3 ovarian): > 100 µM
GI50 (ACHN renal): 81.3 µM
TGI (ACHN renal): > 100 µM
GI50 (OVCAR-4 ovarian): 79.1 µM
TGI (OVCAR-4 ovarian): > 100 µM
GI50 (SK-MEL-2 melanoma): 29.3 µM
TGI (SK-MEL-2 melanoma): 75.5 µM
